Measured values reported in publication PMC6131501, “Urate transporter inhibitor lesinurad is a selective peroxisome proliferator-activated receptor gamma modulator (sPPARγM) in vitro” (Scientific Reports, 2018).

Columns and labels:
PPARγ = target: T1, PPARγ (Homo sapiens, UniProt P37231); assay: Gal4 hybrid reporter gene assay PPARγ; format: cell-based
T1 construct: expressed in transfected cells; host or cells: HEK293T
T1 sequence (P37231 238-503 limits assumed): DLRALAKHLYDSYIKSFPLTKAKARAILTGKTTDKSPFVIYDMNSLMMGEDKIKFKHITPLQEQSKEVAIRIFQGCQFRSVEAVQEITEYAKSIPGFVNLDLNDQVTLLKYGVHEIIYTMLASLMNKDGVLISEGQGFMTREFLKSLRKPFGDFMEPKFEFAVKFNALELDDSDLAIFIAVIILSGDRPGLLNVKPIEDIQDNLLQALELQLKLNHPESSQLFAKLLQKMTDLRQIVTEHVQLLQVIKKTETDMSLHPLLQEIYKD
Source text: (§1) These in vitro test systems are based on a constitutively expressed hybrid receptor composed of the ligand binding domain of the respective human nuclear receptor and the DNA binding domain of the yeast receptor Gal4. A Gal4-inducible firefly luciferase serves as reporter gene and a constitutively expressed renilla luciferase is used for normalization of transfection efficacy and internal toxicity control[18],[19]. […] The Gal4-fusion receptor plasmids pFA-CMV-hPPARα-LBD[50], pFA-CMV-hPPARγ-LBD[50], pFA-CMV-hPPARδ-LBD[50], pFA-CMV-hLXRα-LBD[51], pFA-CMV-hLXRβ-LBD[51], pFA-CMV-hRXRα-LBD[52], pFA-CMV-hRXRβ-LBD[52], pFA-CMV-hRXRγ-LBD[52], pFA-CMV-hRARα-LBD[52], pFA-CMV-hRARβ-LBD[52], pFA-CMV-hRARγ-LBD[52], pFA-CMV-hFXR-LBD[53], pFA-CMV-hVDR-LBD[52], pFA-CMV-hCAR-LBD[52] and pFA-CMV-hPXR-LBD[52] coding for the hinge region and ligand binding domain (LBD) of the canonical isoform of the respective nuclear receptor have been reported previously. pFR-Luc (Stratagene) was used as reporter plasmid and pRL-SV40 (Promega) for normalization of transfection efficiency and cell growth.
HEK293T cells were grown in DMEM high glucose, supplemented with 10% FCS, sodium pyruvate (1 mM), penicillin (100 U/mL) and streptomycin (100 μg/mL) at 37 °C and 5% CO2. The day before transfection, HEK293T cells were seeded in 96-well plates (3·10^4 cells/well). Before transfection, medium was changed to Opti-MEM without supplements. Transient transfection was carried out using Lipofectamine LTX reagent (Invitrogen) according to the manufacturer’s protocol with pFR-Luc (Stratagene), pRL-SV40 (Promega) and the corresponding Gal4-fusion nuclear receptor plasmid. 5 h after transfection, medium was changed to Opti-MEM supplemented with penicillin (100 U/mL), streptomycin (100 μg/mL), now additionally containing 0.1% DMSO and the respective test compound or 0.1% DMSO alone as untreated control. Each concentration was tested in duplicates and each experiment was repeated independently at least three times. Following overnight (12-14 h) incubation with the test compounds, cells were assayed for luciferase activity using Dual-Glo™ Luciferase Assay System (Promega) according to the manufacturer’s protocol. Luminescence was measured with an Infinite M200 luminometer (Tecan Deutschland GmbH). […] Fold activation was obtained by dividing the mean RLU of a test compound at a respective concentration by the mean RLU of untreated control.

[1] = target: pregnane X receptor (PXR) (Homo sapiens, UniProt O75469); assay: Gal4 hybrid reporter gene assay PXR
Chain of pregnane X receptor (PXR) (O75469 146-433 limits assumed): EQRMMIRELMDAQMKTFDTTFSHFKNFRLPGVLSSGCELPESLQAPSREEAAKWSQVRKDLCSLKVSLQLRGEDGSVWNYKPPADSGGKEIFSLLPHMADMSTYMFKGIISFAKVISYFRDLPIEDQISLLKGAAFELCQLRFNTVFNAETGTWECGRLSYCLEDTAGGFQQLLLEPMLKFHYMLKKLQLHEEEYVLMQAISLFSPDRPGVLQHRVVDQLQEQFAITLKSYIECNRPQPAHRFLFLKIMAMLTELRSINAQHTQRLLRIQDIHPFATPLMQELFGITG
Source text: as §1
HEK293T cells were grown in DMEM high glucose, supplemented with 10% FCS, sodium pyruvate (1 mM), penicillin (100 U/mL) and streptomycin (100 μg/mL) at 37 °C and 5% CO2. […] Luminescence was measured with an Infinite M200 luminometer (Tecan Deutschland GmbH). […]

PPARγ LBD / SRC-1 = PPARγ LBD / SRC-1 (Homo sapiens, UniProt P37231); assay: PPARγ coactivator recruitment assay (time-resolved FRET), SRC-1; format: biochemical
Chain of PPARγ LBD / SRC-1 (Q15788 676-700 partner limits assumed, one chain of several): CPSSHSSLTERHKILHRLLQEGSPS
Source text: We analyzed the ability of lesinurad to induce recruitment of the coactivators steroid receptor coactivator 1 (SRC-1, also known as nuclear receptor coactivator 1 (NCOA1)) and cyclic AMP responsive element binding (CREB) protein (CBP) to the PPARγ ligand binding domain in a time-resolved FRET assay with labeled PPARγ-LBD and coactivator proteins (Fig. 5D).
Recruitment of coactivator-derived peptides to the PPARγ LBD was studied by homogeneous time-resolved fluorescence resonance energy transfer (HT-FRET or HTRF). Terbium cryptate as streptavidin conjugate (cisbio assays, France) was used as FRET donor. Peptides derived from coactivators SRC-1 [biotin-[…]] or CBP [biotin-[…]] encompassing the coactivator consensus motif LxxLL and N-terminal biotin for stable coupling to streptavidin were purchased (Eurogentec GmbH, Germany). […] FI520 nm was divided by FI620 nm and multiplied with 10,000 giving a dimensionless HTRF signal. Coactivator recruitment by the PPARγ LBD brings FRET donor and acceptor into close proximity resulting in a gain in FRET signal as signal for binding.

3T3-L1 cells = assay: Cytotoxicity in adipocyte differentiation experiment; format: cell-based, murine; conditions: up to 50 μM (data not shown)
Experimental: For this, 3T3-L1 cells were treated with insulin, dexamethasone and isobutylmethylxanthine (IBMX) to induce their differentiation into mature adipocytes.

O=C(O)CSc1nnc(Br)n1-c1ccc(C2CC2)c2ccccc12 [lesinurad]
Gal4-PPARγ transactivation (PPARγ; 30 μM): robustly transactivated
EC50 (PPARγ; Gal4 hybrid reporter, HEK293T, 12-14 h, mean ± SEM, at least three experiments): 18.5 ± 0.7 µM
EC50 [1]: 19 ± 1 µM
PXR transactivation efficacy ([1]; vs. 1 µM SR12813): 145 ± 9%
EC50 (PPARγ LBD / SRC-1; HTRF, PPARγ LBD, 2 h at RT): 12 ± 2 µM
SRC-1 recruitment efficacy (PPARγ LBD / SRC-1; compared to 1 μM rosiglitazone): 91 ± 5%
cytotoxicity (3T3-L1 cells): no cytotoxicity
